Legend:
Format in all cases: physicochemical
[1] = Loss on drying (moisture); details: Table 1b
Description: In one embodiment, the lossy coated particle contains water. In this embodiment, the lossy coated particle comprises at least 0.1 percent, by weight, water, such as at least 0.3 percent, by weight, water, such as at least 0.5 percent, by weight, water when measured using loss on drying at 105° C. until the weight of the lossy coated particles has stabilized. In one embodiment, the lossy coated particle retains water when measured by loss on drying prior to sintering, such as moisture content of at least 0.1 percent by weight, such as from about 0.1 to about 3 percent, such as from about 0.5 to about 2 percent, by weight.

[2] = Dielectric properties (e′, e″, loss tangent, Q value) by Slotted Line Method
Description: The property of permittivity is the measure of the resistance to forming an electric field. For purposes of comparing materials in air, it is often convenient to describe the permittivity of material in air where the permittivity is more specifically called “relative permittivity” or €r. This is a complex number represented by the following equation: […]
where e′ (the real portion of the complex number) is the dielectric constant (energy storage) and e″ (the imaginary portion of the complex number) is the dielectric loss or dissipation factor (energy dissipated as heat). The ratio of dielectric loss (e″) over the dielectric constant (e′) is called the loss tangent (tan δ) or power factor.
For purposes of this invention, the Q value is calculated for the frequency that the material is to be processed (e.g., 27 MHz). The Q value is affected by physical and chemical properties such as density (porosity/particle size), moisture (conductivity), temperature, and molecular polarizability. The measurements obtained by this method can eliminate the need to measure and evaluate these properties independently.
This process is referred to as the “Slotted Line Method.” Unless otherwise stated, the Slotted line method was used for the calculation of e′, e″, and Q value herein with the frequency range set to 26-28 MHz (31 points resolution) and values of e′ and e″ were recorded from the 27 MHz data point.

Water activity = details: Table 1b
[3] = Table 1b, surface stabilizing agents, 27 MHz

Compound | Loss on Drying @ 105° C. [1] | e′ [2, 3] | e″ [2, 3] | Water Activity (Water activity) | e′ ([2]; Table 1a, dielectric constant, 27 MHz data point, Slotted Line Method) | e″ ([2]; Table 1a, dielectric loss, 27 MHz data point, Slotted Line Method) | Loss Tangent ([2]; Table 1a, e″/e′, 27 MHz)
OC[C@@H](O)[C@H](O)[C@@H](O)CO [Xylitol (Xylitab ® 100), Xylitol] | 0.035 | 1.751 | 0.010 | 0.453 | – | – | –
OC[C@H]1O[C@H](O[C@H]2O[C@H](CO)[C@@H](O)[C@H](O)[C@H]2O)[C@H](O)[C@@H](O)[C@@H]1O [Trehalose] | 0.137 | 1.5185 | 0.0007 | 0.1935 | – | – | –
OC[C@@H](O)[C@@H](O[C@H]1O[C@H](CO)[C@@H](O)[C@H](O)[C@H]1O)[C@H](O)[C@@H](O)CO [Maltitol (SweetPearl DC300), Maltitol] | – | – | – | – | 1.6214 | 0.0035 | 0.0022
